In patent US8003658B2, “Quinazoline derivatives for inhibiting cancer cell growth and method for the preparation thereof” (Hanmi Holdings Co., Ltd., priority 2004, dated 2011):
Read-outs that look alike come from different tables or passages of the source.

Experiments:
[1] = system: A431 (ATCC: CRL-1555); test: Test of cancer cell growth inhibition (SRB), A431; details: read-out: IC50 A431
[2] = system: SK-Br3 (ATCC: HTB-30); test: Test of cancer cell growth inhibition (SRB), SK-Br3; details: read-out: IC50 SK-Br-3
[3] = EGFR overexpressed A431, 72 hours, SRB
[4] = Erb-B2 overexpressed SK-Br3, 72 hours, SRB

Compound | IC50 ([1]; Homo sapiens, A-431, 72 h) | IC50 ([2]; Homo sapiens, SK-BR-3, 72 h) | IC50 [1, 3] | IC50 [2, 4]
CS(=O)(=O)CC(=O)NCCC(=O)Nc1ccc2ncnc(Nc3ccc(F)c(Cl)c3)c2c1 [Example 53-2, N-[4-(3-chloro-4-fluoro-phenylamino)-quinazolin-6-yl]-3-(2-methanesulfonyl-acetylamino)-propionamide] | 124 nM | 258 nM | – | –
C=CC(=O)N1CCC[C@H]1C(=O)Nc1cc2c(Nc3ccc(OCc4ccccn4)c(Cl)c3)ncnc2cc1OCC [Example 170, (2S)-1-acryloyl-pyrrolidine-2-carboxylic acid {4-[3-chloro-4-(pyridin-2-ylmethoxy)-phenylamino]-7-ethoxy-quinazolin-6-yl}-amide] | 199 nM | 2 nM | – | –
O=C(CCCNC(=O)c1cn[nH]c1)Nc1ccc2ncnc(Nc3ccc(OCc4cccc(F)c4)c(Cl)c3)c2c1 [Example 95, 1H-pyrazol-4-carboxylic acid (3-{4-[3-chloro-4-(3-fluoro-benzyloxy)-phenylamino]-quinazolin-6-ylcarbamoyl}-propyl)-amide] | 994 nM | 331 nM | – | –
Cc1ccc(Oc2ccc(Nc3ncnc4ccc(NC(=O)CCNC(=O)CS(C)(=O)=O)cc34)cc2C)cn1 [Example 50-2, 3-(2-methanesulfonyl-acetylamino)-N-{4-[3-methyl-4-(6-methyl-pyridin-3-yloxy)-phenylamino]-quinazolin-6-yl}-propionamide] | 845 nM | 99 nM | – | –
C=CC(=O)N1CCC(C(=O)Nc2cc3c(Nc4ccc(OCc5ccccn5)c(Cl)c4)ncnc3cc2OC)CC1 [Example 197, 1-acryloyl-piperidine-4-carboxylic acid {4-[3-chloro-4-(pyridin-2-ylmethoxy)-phenylamino]-7-methoxy-quinazolin-6-yl}-amide] | 259 nM | 196 nM | – | –
C=CC(=O)N1CCC[C@H]1C(=O)Nc1cc2c(Nc3ccc(OCc4cccc(C)n4)c(Cl)c3)ncnc2cc1OC [Example 194, (2S)-1-acryloyl-pyrrolidine-2-carboxylic acid {4-[3-chloro-4-(6-methyl-pyridin-2-ylmethoxy)-phenylamino]-7-methoxy-quinazolin-6-yl}-amide] | 93 nM | 56 nM | – | –
(2S)-2-acryloylamino-N-{4-[3-chloro-4-(3-fluoro-benzyloxy)-phenylamino]-7-methoxy-quinazolin-6-yl}-4-methylsulfanyl-butyramide [Example 221] | – | – | 28 nM | 23 nM
C=CC(=O)N1CCCC1CC(=O)Nc1cc2c(Nc3ccc(OCc4ccccn4)c(Cl)c3)ncnc2cc1OC (stereo not drawn) [Example 169, 2-(1-acryloyl-pyrrolidin-2-yl)-N-{4-[3-chloro-4-(pyridin-2-ylmethoxy)-phenylamino]-7-methoxy-quinazolin-6-yl}-acetamide] | 79 nM | 24 nM | – | –
C=CC(=O)N1CCC[C@H]1C(=O)Nc1cc2c(Nc3ccc(OCc4ccccn4)c(Cl)c3)ncnc2cc1Cl [Example 176, (2S)-1-acryloyl-pyrrolidine-2-carboxylic acid {7-chloro-4-[3-chloro-4-(pyridin-2-ylmethoxy)-phenylamino]-quinazolin-6-yl}-amide] | 517 nM | 34 nM | – | –
CC(=O)OCC(=O)NCCC(=O)Nc1ccc2ncnc(Nc3ccc(OCc4cccc(F)c4)c(Cl)c3)c2c1 [Example 121, acetic acid (2-{4-[3-chloro-4-(3-fluoro-benzyloxy)-phenylamino]-quinazolin-6-ylcarbamoyl}-ethylcarbamoyl)-methylester] | 616 nM | 69 nM | – | –
C=CC(=O)N[C@@H](C)C(=O)Nc1cc2c(Nc3ccc(OCc4ccccn4)c(Cl)c3)ncnc2cc1OCCCOC [Example 220, (1S)—N-(1-{4-[3-chloro-4-(pyridin-2-ylmethoxy)-phenylamino]-7-(3-methoxypropoxy)-quinazolin-6-ylcarbamoyl}-ethyl)-acrylamide] | 22 nM | 21 nM | – | –
CN(C)CC=CC(=O)NCCC(=O)Nc1ccc2ncnc(Nc3ccc(OCc4cccc(F)c4)c(Cl)c3)c2c1 [Example 56, 4-dimethylamino-but-2-enonylic acid (2-{4-[3-chloro-4-(3-fluoro-benzyloxy)-phenylamino]-quinazolin-6-ylcarbamoyl}-ethyl)-amide] | – | – | 613 nM | 51 nM
COCC(=O)N[C@H](C(=O)Nc1ccc2ncnc(Nc3ccc(OCc4cccc(F)c4)c(Cl)c3)c2c1)c1ccccc1 [Example 11, (2S)—N-{4-[3-chloro-4-(3-fluoro-benzyloxy)-phenylamino]-quinazolin-6-yl}-2-(2-methoxy-acetylamino)-2-phenyl-acetamide] | 252 nM | 113 nM | – | –
O=C(CCNC(=O)C(F)(F)F)Nc1ccc2ncnc(Nc3ccc(OCc4cccc(F)c4)c(Cl)c3)c2c1 [Example 119, N-{4-[3-chloro-4-(3-fluoro-benzyloxy)-phenylamino]-quinazolin-6-yl}-3-(2,2,2-trifluoro-acetylamino)-propionamide] | 161 nM | 69 nM | – | –
C=CC(=O)N[C@H](C(=O)Nc1ccc2ncnc(Nc3ccc(OCc4ccccn4)c(Cl)c3)c2c1)C(C)C [Example 224, (2S)-2-acryloylamino-N-{4-[3-chloro-4-(pyridin-2-ylmethoxy)-phenylamino]-quinazolin-6-yl}-3-methyl-butyramide] | 49 nM | 12 nM | – | –
C=CC(=O)N1C[C@H](SCC)C[C@H]1C(=O)Nc1ccc2ncnc(Nc3ccc(OCc4ccccn4)c(Cl)c3)c2c1 [Example 150, (2S,4R)-1-acryloyl-4-ethylsulfanyl-pyrrolidine-2-carboxylic acid {4-[3-chloro-4-(pyridin-2-ylmethoxy)-phenylamino]-quinazolin-6-yl}-amide] | 36 nM | 6 nM | – | –
CS(=O)(=O)CC(=O)N1CCCC1C(=O)Nc1ccc2ncnc(Nc3ccc(OCc4cccc(F)c4)c(Cl)c3)c2c1 (stereo not drawn) [Example 17, 1-(2-methanesulfonyl-acetyl)-pyrrolidine-2-carboxylic acid {4-[3-chloro-4-(3-fluoro-benzyloxy)-phenylamino]-quinazolin-6-yl}-amide] | 713 nM | 182 nM | – | –
C=CC(=O)N1CCC[C@H]1C(=O)Nc1ccc2ncnc(Nc3ccc(OCc4ccncc4)c(Cl)c3)c2c1 [Example 153, (2S)-1-acryloyl-pyrrolidine-2-carboxylic acid {4-[3-chloro-4-(pyridin-4-ylmethoxy)-phenylamino]-quinazolin-6-yl}-amide] | 394 nM | 29 nM | – | –
C=CC(=O)N1CCC(C(=O)Nc2ccc3ncnc(Nc4ccc(OCc5ccccn5)c(Cl)c4)c3c2)C1 (stereo not drawn) [Example 155, 1-acryloyl-pyrrolidine-3-carboxylic acid {4-[3-chloro-4-(pyridin-2-ylmethoxy)-phenylamino]-quinazolin-6-yl}-amide] | – | 12 nM | 350 nM | –
O=C(CCNC(=O)Nc1ccccc1)Nc1ccc2ncnc(Nc3ccc(OCc4cccc(F)c4)c(Cl)c3)c2c1 [Example 124, N-{4-[3-chloro-4-(3-fluoro-benzyloxy)-phenylamino]-quinazolin-6-yl}-3-(3-phenyl-ureido)-propionamide] | 584 nM | 107 nM | – | –
C=CC(=O)N1C[C@H](OC(C)=O)C[C@H]1C(=O)Nc1ccc2ncnc(Nc3ccc(OCc4ccccn4)c(Cl)c3)c2c1 [Example 148, (3R,5S)-acetic acid 1-acryloyl-5-{4-[3-chloro-4-(pyridin-2-ylmethoxy)-phenylamino]-quinazolin-6-ylcarbamoyl}-pyrrolidin-3-ylester] | 34 nM | 4 nM | – | –
